From ChEMBL document CHEMBL4825658, “Discovery of 3-(4-(2-((1H-Indol-5-yl)amino)-5-fluoropyrimidin-4-yl)-1H-pyrazol-1-yl)propanenitrile Derivatives as Selective TYK2 Inhibitors for the Treatment of Inflammatory Bowel Disease” (J Med Chem, 2021)
pIC50: −log10 of the molar value.

Key:
[1] = target: Tyrosine-protein kinase JAK2 (Homo sapiens, UniProt O60674); assay: Inhibition of recombinant human JAK2 (808 to end residues) KTFCGTPEYLAPE as substrate measured after 40 mins in presence of [gamm33P]ATP by scintillation counting based radiometry assay
[2] = target: Non-receptor tyrosine-protein kinase TYK2 (Homo sapiens, UniProt P29597); assay: Inhibition of recombinant human TYK2 (875 to end residues) using GGMEDIYFEFMGG as substrate incubated for 40 mins in presence of [gamma33P]ATP by scintillation counting based radiometry assay
[3] = target: Tyrosine-protein kinase JAK1 (Homo sapiens, UniProt P23458); assay: Inhibition of human JAK1 (866 to end residues) using GEEPLYWSFPAKKK as substrate after 40 mins in presence of [gamma33P]ATP by scintillation counting based radiometry assay
[4] = target: T1, Tyrosine-protein kinase JAK3 (Homo sapiens, UniProt P52333); assay: Inhibition of recombinant human JAK3 (781 to end residues) using GGEEEEYFELVKKKK as substrate measured after 40 mins in presence of [gamma33P]ATP by scintillation counting based radiometry assay
T1 sequence (P52333 whole entry): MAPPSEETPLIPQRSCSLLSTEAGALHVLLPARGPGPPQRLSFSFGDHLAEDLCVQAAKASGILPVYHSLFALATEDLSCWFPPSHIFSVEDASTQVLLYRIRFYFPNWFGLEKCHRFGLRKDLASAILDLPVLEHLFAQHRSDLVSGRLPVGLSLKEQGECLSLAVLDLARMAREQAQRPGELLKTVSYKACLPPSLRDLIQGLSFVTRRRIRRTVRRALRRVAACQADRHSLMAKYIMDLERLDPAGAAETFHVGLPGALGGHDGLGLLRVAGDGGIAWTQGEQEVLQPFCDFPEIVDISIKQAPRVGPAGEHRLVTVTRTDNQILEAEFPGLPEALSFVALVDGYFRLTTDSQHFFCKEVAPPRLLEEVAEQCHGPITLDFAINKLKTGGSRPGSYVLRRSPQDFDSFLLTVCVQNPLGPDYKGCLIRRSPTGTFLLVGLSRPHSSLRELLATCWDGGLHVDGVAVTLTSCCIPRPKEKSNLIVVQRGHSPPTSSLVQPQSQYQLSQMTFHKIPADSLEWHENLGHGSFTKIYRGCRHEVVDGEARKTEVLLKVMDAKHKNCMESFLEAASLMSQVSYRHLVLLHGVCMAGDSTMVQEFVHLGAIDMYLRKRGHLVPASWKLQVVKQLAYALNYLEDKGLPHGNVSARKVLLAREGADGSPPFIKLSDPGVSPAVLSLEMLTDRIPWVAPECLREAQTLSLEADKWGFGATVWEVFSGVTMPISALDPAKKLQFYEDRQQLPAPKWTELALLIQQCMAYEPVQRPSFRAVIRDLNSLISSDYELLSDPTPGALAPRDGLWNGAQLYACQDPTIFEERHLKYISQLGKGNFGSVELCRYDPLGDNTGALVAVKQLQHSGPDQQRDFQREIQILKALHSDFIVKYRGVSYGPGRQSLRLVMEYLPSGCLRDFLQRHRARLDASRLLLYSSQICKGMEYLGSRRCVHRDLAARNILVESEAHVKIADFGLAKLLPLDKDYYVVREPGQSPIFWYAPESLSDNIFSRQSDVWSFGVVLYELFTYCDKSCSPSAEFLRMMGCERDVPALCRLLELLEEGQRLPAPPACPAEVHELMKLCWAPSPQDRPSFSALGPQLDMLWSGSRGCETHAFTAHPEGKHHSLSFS

[5] = Metabolic stability in cryopreserved human liver microsomes assessed as half life; assay type: ADME, Microsome
[6] = species on record: Homo sapiens; assay: Selectivity index, ratio of IC50 for inhibition of recombinant human JAK2 (808 to end residues) to IC50 for inhibition of recombinant human TYK2 (875 to end residues)

Chain of Tyrosine-protein kinase JAK1 (P23458 whole entry): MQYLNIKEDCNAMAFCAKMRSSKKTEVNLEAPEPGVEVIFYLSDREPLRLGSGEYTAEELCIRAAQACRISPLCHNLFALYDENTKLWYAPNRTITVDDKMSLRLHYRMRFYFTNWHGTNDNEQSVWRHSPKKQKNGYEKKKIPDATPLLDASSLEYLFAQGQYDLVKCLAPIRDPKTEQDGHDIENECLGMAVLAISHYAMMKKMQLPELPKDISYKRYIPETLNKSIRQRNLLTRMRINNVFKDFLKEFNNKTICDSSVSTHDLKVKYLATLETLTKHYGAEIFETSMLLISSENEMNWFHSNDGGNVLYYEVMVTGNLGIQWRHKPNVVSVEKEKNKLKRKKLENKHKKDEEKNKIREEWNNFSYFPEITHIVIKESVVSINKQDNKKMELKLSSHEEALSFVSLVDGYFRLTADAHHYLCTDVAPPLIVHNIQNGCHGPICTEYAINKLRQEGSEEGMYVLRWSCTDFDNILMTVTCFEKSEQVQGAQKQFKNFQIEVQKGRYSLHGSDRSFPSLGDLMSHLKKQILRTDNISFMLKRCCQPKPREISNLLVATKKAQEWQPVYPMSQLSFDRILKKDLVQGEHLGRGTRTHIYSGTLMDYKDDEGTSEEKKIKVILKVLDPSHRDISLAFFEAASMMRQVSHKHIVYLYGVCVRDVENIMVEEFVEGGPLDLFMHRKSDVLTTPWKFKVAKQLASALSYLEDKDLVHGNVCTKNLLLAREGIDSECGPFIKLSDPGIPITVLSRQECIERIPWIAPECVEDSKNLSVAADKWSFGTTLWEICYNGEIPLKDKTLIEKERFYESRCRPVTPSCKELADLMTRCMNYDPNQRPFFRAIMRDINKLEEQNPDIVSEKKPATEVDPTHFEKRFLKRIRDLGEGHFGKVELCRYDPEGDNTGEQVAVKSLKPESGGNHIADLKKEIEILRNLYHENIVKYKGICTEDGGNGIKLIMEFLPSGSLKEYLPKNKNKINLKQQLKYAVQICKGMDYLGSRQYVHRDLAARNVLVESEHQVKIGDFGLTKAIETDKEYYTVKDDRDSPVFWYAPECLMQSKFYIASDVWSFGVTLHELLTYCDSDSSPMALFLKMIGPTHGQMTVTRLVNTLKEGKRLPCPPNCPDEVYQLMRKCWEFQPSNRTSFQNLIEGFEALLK
Chain of Non-receptor tyrosine-protein kinase TYK2 (P29597 whole entry): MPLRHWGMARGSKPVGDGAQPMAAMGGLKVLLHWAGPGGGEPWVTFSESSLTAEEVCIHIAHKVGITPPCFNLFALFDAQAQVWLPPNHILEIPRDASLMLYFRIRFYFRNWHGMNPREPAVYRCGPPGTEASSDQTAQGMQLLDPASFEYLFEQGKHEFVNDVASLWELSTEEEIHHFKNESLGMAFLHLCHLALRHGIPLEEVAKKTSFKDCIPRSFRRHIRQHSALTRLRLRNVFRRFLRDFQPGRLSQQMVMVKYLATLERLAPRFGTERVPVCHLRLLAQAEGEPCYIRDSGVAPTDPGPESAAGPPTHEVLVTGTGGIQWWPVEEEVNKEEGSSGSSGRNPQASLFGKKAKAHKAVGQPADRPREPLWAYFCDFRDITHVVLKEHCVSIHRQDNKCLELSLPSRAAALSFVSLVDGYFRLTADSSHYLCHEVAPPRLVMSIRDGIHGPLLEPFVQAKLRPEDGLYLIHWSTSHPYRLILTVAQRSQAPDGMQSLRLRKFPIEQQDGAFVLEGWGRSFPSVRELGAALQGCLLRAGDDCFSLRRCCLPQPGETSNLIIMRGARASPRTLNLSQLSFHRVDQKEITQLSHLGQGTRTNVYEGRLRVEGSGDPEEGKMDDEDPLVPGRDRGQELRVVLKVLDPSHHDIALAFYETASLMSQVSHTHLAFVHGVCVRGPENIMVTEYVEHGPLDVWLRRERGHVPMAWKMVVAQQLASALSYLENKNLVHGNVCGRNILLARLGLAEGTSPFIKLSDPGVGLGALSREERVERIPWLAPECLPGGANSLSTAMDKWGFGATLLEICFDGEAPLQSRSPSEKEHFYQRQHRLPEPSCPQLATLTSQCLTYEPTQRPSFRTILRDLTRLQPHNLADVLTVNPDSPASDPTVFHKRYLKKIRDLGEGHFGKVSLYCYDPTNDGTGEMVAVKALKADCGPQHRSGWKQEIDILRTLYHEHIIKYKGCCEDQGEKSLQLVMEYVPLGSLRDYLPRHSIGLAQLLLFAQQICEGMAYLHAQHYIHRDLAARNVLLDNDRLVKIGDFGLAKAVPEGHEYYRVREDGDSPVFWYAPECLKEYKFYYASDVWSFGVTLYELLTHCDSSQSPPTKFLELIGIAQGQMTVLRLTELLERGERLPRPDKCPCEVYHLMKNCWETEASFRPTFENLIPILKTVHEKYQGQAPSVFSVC
Chain of Tyrosine-protein kinase JAK2 (O60674 whole entry): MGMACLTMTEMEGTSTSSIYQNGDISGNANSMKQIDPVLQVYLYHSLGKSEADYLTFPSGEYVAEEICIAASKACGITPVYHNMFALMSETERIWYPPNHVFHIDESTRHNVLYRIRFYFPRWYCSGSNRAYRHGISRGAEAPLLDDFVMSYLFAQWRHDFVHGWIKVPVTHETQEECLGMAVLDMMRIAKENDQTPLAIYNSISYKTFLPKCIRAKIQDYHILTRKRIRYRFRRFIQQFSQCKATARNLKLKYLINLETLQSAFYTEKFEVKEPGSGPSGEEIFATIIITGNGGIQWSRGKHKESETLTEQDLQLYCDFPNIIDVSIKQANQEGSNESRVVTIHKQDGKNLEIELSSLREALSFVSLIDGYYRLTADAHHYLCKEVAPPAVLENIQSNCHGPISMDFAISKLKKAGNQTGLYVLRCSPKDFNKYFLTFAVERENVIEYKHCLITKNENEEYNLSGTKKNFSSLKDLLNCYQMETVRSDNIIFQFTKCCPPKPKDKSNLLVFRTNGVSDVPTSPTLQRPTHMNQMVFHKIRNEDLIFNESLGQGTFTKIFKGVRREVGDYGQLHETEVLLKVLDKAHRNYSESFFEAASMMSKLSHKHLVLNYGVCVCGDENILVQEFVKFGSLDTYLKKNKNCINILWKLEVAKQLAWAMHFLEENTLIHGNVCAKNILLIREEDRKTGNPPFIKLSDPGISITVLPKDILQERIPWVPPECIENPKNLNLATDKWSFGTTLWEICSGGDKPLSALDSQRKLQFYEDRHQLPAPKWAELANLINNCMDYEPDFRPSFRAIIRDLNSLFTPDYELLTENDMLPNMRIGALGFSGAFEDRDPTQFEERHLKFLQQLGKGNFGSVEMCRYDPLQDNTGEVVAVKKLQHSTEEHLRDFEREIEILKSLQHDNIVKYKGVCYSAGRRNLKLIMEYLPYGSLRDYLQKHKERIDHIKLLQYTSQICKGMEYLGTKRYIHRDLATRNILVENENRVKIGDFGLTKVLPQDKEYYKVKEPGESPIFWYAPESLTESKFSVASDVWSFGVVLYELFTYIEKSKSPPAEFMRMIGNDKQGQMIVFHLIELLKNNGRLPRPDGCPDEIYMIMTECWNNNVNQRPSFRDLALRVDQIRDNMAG

pIC50 [1] | pIC50 [2] | pIC50 [3] | pIC50 [4] | half-life [5] [min] | Selectivity Index [6] | SMILES
6.71 | 8.40 | 6.04 | < 6.00 | 9.8 | – | N#CCCn1cc(-c2nc(Nc3ccc4c(c3)CCN4S(=O)(=O)C(F)(F)F)ncc2F)cn1
6.47 | 7.42 | 6.42 | 6.29 | 15.3 | – | CCOC(C)n1cc(-c2nc(Nc3ccc4c(c3)CCN4S(=O)(=O)c3ccc(C(F)(F)F)cc3)ncc2C)cn1 (stereo unspecified)
6.79 | 7.92 | 6.48 | < 6.00 | 19.5 | – | Cc1cnc(Nc2ccc3c(c2)CCN3S(=O)(=O)c2ccc(C(F)(F)F)cc2)nc1-c1cnn(C2CCC2)c1
8.42 | 8.69 | – | – | – | 1.85 | Cc1cnc(Nc2ccc3c(c2)CCN3C(=O)[C@H]2CCCN2C(=O)C2(C#N)CC2)nc1-c1cnn(C(C)C)c1
– | 7.64 | – | – | 2.38 | – | CCCn1cc(-c2nc(Nc3ccc4c(c3)CCN4S(=O)(=O)c3ccc(C(F)(F)F)cc3)ncc2C)cn1
6.53 | 8.70 | – | – | 3.2 | – | N#CCCn1cc(-c2nc(Nc3ccc4c(c3)CCN4)ncc2F)cn1
7.62 | 8.11 | – | – | – | 3.08 | COc1ccc(S(=O)(=O)N2CCc3cc(Nc4ncc(C)c(-c5cnn(C(C)C)c5)n4)ccc32)cc1
7.60 | 7.91 | – | – | – | 2.03 | Cc1cnc(Nc2ccc3c(c2)CCN3S(=O)(=O)c2ccc3c(c2)CC(=O)N3)nc1-c1cnn(C(C)C)c1
7.90 | 7.20 | – | – | – | < 1 | Cc1cnc(Nc2ccc3c(c2)CCN3S(=O)(=O)c2ccc3c(c2)CC(=O)N3C)nc1-c1cnn(C(C)C)c1
8.96 | 9.17 | – | – | 7.79 | – | Cc1cnc(Nc2ccc3c(c2)CNC3=O)nc1-c1cnn(CCC#N)c1
8.62 | 8.57 | – | – | – | < 1 | Cc1cnc(Nc2ccc3c(c2)CCN3S(=O)(=O)C2CC2)nc1-c1cnn(C(C)C)c1
6.94 | 7.74 | – | – | 7.62 | – | Cn1ccc2cc(Nc3ncc(F)c(-c4cnn(CCC#N)c4)n3)ccc21
– | 8.70 | 6.90 | 6.61 | > 120 | – | N#CCCn1cc(-c2nc(Nc3ccc4c(c3)CCN4C(=O)CN3CCS(=O)(=O)CC3)ncc2F)cn1
– | – | – | – | 38.1 | – | N#CCCn1cc(-c2nc(Nc3ccc4c(ccn4S(=O)(=O)c4ccc(C(F)(F)F)cc4)c3)ncc2F)cn1
7.55 | 8.22 | 6.59 | 6.72 | 31.8 | – | N#CCCn1cc(-c2nc(Nc3ccc4c(c3)CCN4C(=O)C3(C#N)CC3)ncc2F)cn1
8.64 | 8.42 | – | – | – | < 1 | CCCS(=O)(=O)N1CCc2cc(Nc3ncc(C)c(-c4cnn(C(C)C)c4)n3)ccc21
8.41 | 8.42 | – | – | – | 1.03 | Cc1cnc(Nc2ccc3c(c2)CCN3C(=O)C2CC2)nc1-c1cnn(C(C)C)c1
< 6.00 | 6.83 | < 6.00 | < 6.00 | 7.3 | – | Cc1cnc(Nc2ccc3c(c2)CCN3S(=O)(=O)c2ccc(C(F)(F)F)cc2)nc1-c1cnn(C)c1
7.18 | 7.84 | – | – | – | 4.49 | Cc1cnc(Nc2ccc3c(c2)CCN3C(=O)c2cccc(C(F)(F)F)c2)nc1-c1cnn(C(C)C)c1
6.22 | 7.40 | – | – | – | – | CC(C)(C)c1ccc(C(=O)N2CCc3cc(Nc4ncc(F)c(-c5cnn(CCC#N)c5)n4)ccc32)cc1

pIC50 [1] | pIC50 [2] | pIC50 [3] | pIC50 [4] | half-life [5] [min] | Selectivity Index [6] | SMILES
8.18 | 8.24 | – | – | – | 1.16 | Cc1cnc(Nc2ccc3c(c2)CCN3C(=O)C2CC2(F)F)nc1-c1cnn(C(C)C)c1 (stereo unspecified)
6.52 | 6.82 | – | – | 69.3 | – | N#CCCn1cc(-c2nc(Nc3ccc4c(ccn4C(=O)C4CC4)c3)ncc2F)cn1
8.22 | 8.74 | – | – | – | 3.31 | CC(=O)N1CCc2cc(Nc3ncc(C)c(-c4cnn(C(C)C)c4)n3)ccc21
8.52 | 8.30 | – | – | – | < 1 | Cc1cnc(Nc2ccc3c(c2)CCN3C(=O)[C@H]2CCCN2)nc1-c1cnn(C(C)C)c1
7.60 | 7.89 | 7.39 | 6.16 | – | – | Cc1cnc(Nc2ccc(NS(=O)(=O)c3ccc(C(F)(F)F)cc3)c(F)c2)nc1-c1cnn(C(C)C)c1
6.40 | 7.29 | – | – | – | 7.8 | Cc1cnc(Nc2ccc3c(c2)CCN3C(=O)Cc2ccc(OC(F)(F)F)cc2)nc1-c1cnn(C(C)C)c1
7.92 | 8.02 | – | – | – | 1.24 | Cc1cnc(Nc2ccc3c(c2)CCN3C(=O)CCN2CCOCC2)nc1-c1cnn(C(C)C)c1
8.52 | 8.70 | – | – | – | 1.51 | Cc1cnc(Nc2ccc3c(c2)CCN3C(=O)CN2CCS(=O)(=O)CC2)nc1-c1cnn(C(C)C)c1
7.24 | 8.15 | – | – | 56.8 | – | N#CCCn1cc(-c2nc(Nc3ccc4c(c3)CNC4=O)ncc2F)cn1
8.57 | 8.79 | – | – | – | 1.69 | CCS(=O)(=O)N1CCc2cc(Nc3ncc(C)c(-c4cnn(C(C)C)c4)n3)ccc21
– | 8.70 | – | – | – | – | Cc1cnc(Nc2ccc(N3CCC(N(C)CCO)CC3)c(F)c2)nc1-c1cnn(C(C)C)c1
– | 7.22 | – | – | 4.13 | – | Cc1cnc(Nc2ccc3c(c2)CCN3S(=O)(=O)c2ccc(C(F)(F)F)cc2)nc1-c1cnn(C2CC2)c1
7.67 | 7.96 | – | – | – | 1.95 | Cc1cnc(Nc2ccc3c(c2)CCN3C(=O)[C@@H](O)CO)nc1-c1cnn(C(C)C)c1
6.82 | 8.30 | – | – | 17.2 | – | N#CCCn1cc(-c2nc(Nc3ccc4c(c3)CCN4C(=O)c3ccc(C(F)(F)F)cc3)ncc2F)cn1
7.60 | 7.97 | – | – | – | 2.36 | Cc1cnc(Nc2ccc3c(c2)CCN3C(=O)c2ccc(C(F)(F)F)cc2F)nc1-c1cnn(C(C)C)c1
7.98 | 8.20 | – | – | – | 1.65 | Cc1cnc(Nc2ccc3c(c2)CCN3C(=O)[C@@H]2C[C@@H]2F)nc1-c1cnn(C(C)C)c1
7.09 | 7.80 | 6.47 | < 6.00 | 3.94 | 5.12 | Cc1cnc(Nc2ccc3c(c2)CCN3S(=O)(=O)c2ccc(C(F)(F)F)cc2)nc1-c1cnn(C(C)C)c1
7.68 | 8.70 | 7.08 | < 6.00 | 22 | – | Cc1cnc(Nc2ccc3c(c2)CCN3S(=O)(=O)c2ccc(C(F)(F)F)cc2)nc1-c1cnn(CCC#N)c1
– | 8.05 | – | – | 9.2 | – | N#CCCn1cc(-c2nc(Nc3ccc4c(c3)CCN4S(=O)(=O)c3ccc(C(F)(F)F)cc3)ncc2F)cn1
